According to patent US20120020940A1, “ANTIMICROBIAL PEPTIDES” (Helmholtz Zentrum München Deutsches Forschungszentrum Für …, priority 2008, published 2012):
No end group written: not given here.

How the values were obtained:
[1] = test system: Clavibacter michiganensis; assay: MIC and lethal concentration (Example 3); type: cell-based; settings: Table 2; for MIC (>90% inhibition): 1-2 days at 25° C.; for LC, lethal concentration (100% inhibition): at least 4 days of incubation
Experimental: (§1) In-vitro inhibition assays were performed in sterile flat-bottom 96-well plates (Greiner bio-one, Frickenhausen). Antimicrobial peptides were dissolved in 0.01% acetic acid containing 0.2% BSA (500 μg/ml), filter sterilized and stored at −20° C. For inhibition assays dilutions of peptides ranging from 5 to 200 μg/ml were prepared and 10 μl (antibacterial assay) or 20 μl (antifungal assay) of each concentration was loaded per well.
(§2) Bacteria colonies from overnight agar plate cultures were resuspended into 5 ml LB-medium or HPG-medium (OD600 nm=0.08-0.1) and diluted into LB-medium/HPG-medium (1:100). 90 μl of this suspension containing about 10^5-10^6 CFU/ml of tested bacteria were added to each well resulting in final peptide concentrations of 0, 0.5, 1, 2, 5, 10, and 20 μg/ml. […] The lowest concentration, in which there is no observable growth (>90% inhibition) is referred to as minimal inhibitory concentration (MIC). […] For each peptide concentration two identical inhibition assays were performed.

[2] = test system: Pectobacterium carotovorum; assay: MIC and lethal concentration (Example 3); type: cell-based; settings: Table 2; for MIC (>90% inhibition): 1-2 days at 25° C.; for LC, lethal concentration (100% inhibition): at least 4 days of incubation
Experimental: as §1, §2

Pseudomonas corrugata [3] = assay: MIC and lethal concentration (Example 3); type: cell-based; settings: Table 2; for MIC (>90% inhibition): 1-2 days at 25° C.; for LC, lethal concentration (100% inhibition): at least 4 days of incubation
Experimental: as §1, §2

[4] = test system: Pseudomonas syringae pv. syringae; assay: MIC and lethal concentration (Example 3); type: cell-based; settings: Table 2; for MIC (>90% inhibition): 1-2 days at 25° C.; for LC, lethal concentration (100% inhibition): at least 4 days of incubation
Experimental: as §1, §2

[5] = test system: Pseudomonas syringae pv. tomato; assay: MIC and lethal concentration (Example 3); type: cell-based; settings: Table 2; for MIC (>90% inhibition): 1-2 days at 25° C.; for LC, lethal concentration (100% inhibition): at least 4 days of incubation
Experimental: as §1, §2

Xanthomonas vesicatoria [6] = assay: MIC and lethal concentration (Example 3); type: cell-based; settings: Table 2; for MIC (>90% inhibition): 1-2 days at 25° C.; for LC, lethal concentration (100% inhibition): at least 4 days of incubation
Experimental: as §1, §2

Alternaria alternata = assay: MIC, antifungal in-vitro inhibition assay (Example 2); type: cell-based; settings: Table 1
Experimental: as §1
(§3) Spores of fungi were collected by water washes of sporulating cultures grown on 2% malt extract agar and spore concentration was determined by microscopy. The concentration of the spores was adjusted to 1.5-2×10^3 spores/ml in 2% malt extract medium and 80 μl of fungal spores were added per well. The final peptide concentrations used in the fungal inhibition assays were […]. After overnight incubation at room temperature the plate were put on a rotary shaker (300 rpm) for further two days to ensure consistantly growth. Antifungal effects of the peptides were determined by a microplate reader (Alternaria, Fusarium) at OD590 nm or by visual screening of the plates (Botrytis, Cladosporium).
(§4) The lowest peptide concentration leading to complete inhibition of bacterial growth or spore germination/mycelial growth (minimal inhibition concentration, MIC) was determined for each organism-peptide combination. For each peptide concentration two identical inhibition assays were performed.

Botrytis cinerea = assay: as above; type: cell-based; settings: Table 1
Experimental: as §1, §3, §4

Cladosporium herbarum = assay: as above; type: cell-based; settings: Table 1
Experimental: as §1, §3, §4

human erythrocytes = assay: Hemolytic activity, hemoglobin release; type: cell-based; settings: 45 min at 37° C., Table 3
Experimental: The hemolytic activity of the peptides was evaluated by determining hemoglobin release of suspensions of fresh human erythrocytes at 405 nm. Human red blood cells were centrifuged and washed three times with Tris-buffer (10 mM Tris, 150 mM NaCl, pH 7.4). Eighty μl of human red blood cells (1.5×10^9/ml) were added to 20 μl of the peptides solution (peptides dissolved in 0.2% BSA, 0.01% HAc) in 96-well plates (Greiner bio-one, Frickenhausen) and incubated for 45 min at 37° C. The endconcentration of the peptides were 0, 20, 50, 100 and 200 μg/ml. After centrifugation (1500×g, 5 min, 20° C.) 30 μl aliquots of the supernatant were transferred to 96-well plates containing 100 μl water. Hemolysis was measured by absorbance at 405 nm with a microplate reader. 100% hemolysis were determined in 2% SDS. The hemolysis percentage was calculated using the following equation: % hemolysis=[(Abs405 nm in the peptide solution−Abs405 nm in peptides solvent)/(Abs405 nm in 2% SDS−Abs405 nm in peptide solvent)]×100.
Further hemolytic activities of the various peptides of the present invention may be taken from the table depicted in example 3, last row indicated as “Hemolytic activity”. In connection therewith, however, the concentrations are stated where at least 50% hemolysis was observed.

[7] = test system: Clavibacter michiganensis sub. michiganensis; settings: overnight 25° C., Table 1
[8] = test system: Pectobacterium carotovorum sub. carotovorum; settings: Pectobacterium carotovorum sub. carotovorum; overnight 25° C.; Table 1
Xanthomonas vesicatoria [9] = settings: Xanthomonas vesicatoria; overnight 25° C.; Table 1
[10] = test system: Pseudomonas syringae pv. tomato; settings: Pseudomonas syringae pv. tomato; overnight 25° C.; Table 1
[11] = test system: Pseudomonas syringae pv. syringae; settings: Pseudomonas syringae pv. syringae; overnight 25° C.; Table 1
Pseudomonas corrugata [12] = settings: Pseudomonas corrugata; overnight 25° C.; Table 1

LRFAKKALKKLF-NH2 [SP10-3]
MIC (>90% inhibition) [1]: 2.5/2.5 μg/ml
LC, lethal concentration (100% inhibition) [1]: 2.5/2.5 μg/ml
MIC (>90% inhibition) [2]: >10/>10 μg/ml
LC, lethal concentration (100% inhibition) [2]: >10/>10 μg/ml
MIC (>90% inhibition) (Pseudomonas corrugata [3]): 1.0 µg/mL
MIC (>90% inhibition) [4]: 0.25 µg/mL
LC, lethal concentration (100% inhibition) [4]: 2.5 µg/mL
MIC (>90% inhibition) [5]: 0.25/0.25 μg/ml
LC, lethal concentration (100% inhibition) [5]: 0.25/0.25 μg/ml
MIC (>90% inhibition) (Xanthomonas vesicatoria [6]): 2.5/2.5 μg/ml
LC, lethal concentration (100% inhibition) (Xanthomonas vesicatoria [6]): 2.5/2.5 μg/ml

LRFARRALRRLF-NH2 [SP10-9]
MIC (>90% inhibition) [1]: 1.0/1.0 μg/ml
LC, lethal concentration (100% inhibition) [1]: 1.0/1.0 μg/ml
MIC (>90% inhibition) [2]: 2.5 µg/mL
LC, lethal concentration (100% inhibition) [2]: 5.0 µg/mL
MIC (>90% inhibition) (Pseudomonas corrugata [3]): 0.5 µg/mL
LC, lethal concentration (100% inhibition) (Pseudomonas corrugata [3]): 2.5 µg/mL
MIC (>90% inhibition) [4]: 0.25 µg/mL
LC, lethal concentration (100% inhibition) [4]: 2.5 µg/mL
MIC (>90% inhibition) [5]: 0.25 µg/mL
LC, lethal concentration (100% inhibition) [5]: 0.5 µg/mL
MIC (>90% inhibition) (Xanthomonas vesicatoria [6]): 1.0 µg/mL
LC, lethal concentration (100% inhibition) (Xanthomonas vesicatoria [6]): 2.5 µg/mL

LLKALKKLLKKLL-NH2 [SP9]
Minimal inhibition concentration (MIC) for complete inhibition of spore germination/mycelial growth (Alternaria alternata): >100 µg/mL
Minimal inhibition concentration (MIC) for complete inhibition of spore germination/mycelial growth (Botrytis cinerea): >100 µg/mL
Minimal inhibition concentration (MIC) for complete inhibition of spore germination/mycelial growth (Cladosporium herbarum): 40 µg/mL
Hemolytic activity, concentration where at least 25% hemolysis was observed (human erythrocytes): 50 µg/mL
Minimal inhibition concentration (MIC) for complete inhibition of bacterial growth [7]: 10 µg/mL
Minimal inhibition concentration (MIC) for complete inhibition of bacterial growth [8]: >40 µg/mL
Minimal inhibition concentration (MIC) for complete inhibition of bacterial growth (Xanthomonas vesicatoria [9]): 5 µg/mL
Minimal inhibition concentration (MIC) for complete inhibition of bacterial growth [10]: 10 µg/mL
Minimal inhibition concentration (MIC) for complete inhibition of bacterial growth [11]: 10 µg/mL
Minimal inhibition concentration (MIC) for complete inhibition of bacterial growth (Pseudomonas corrugata [12]): >40 µg/mL

LRILRRLLRRLF-NH2 [SP10-7]
MIC (>90% inhibition) [1]: 5.0/5.0 μg/ml
LC, lethal concentration (100% inhibition) [1]: 5.0/5.0 μg/ml
MIC (>90% inhibition) [2]: >10/>10 μg/ml
LC, lethal concentration (100% inhibition) [2]: >10/>10 μg/ml
MIC (>90% inhibition) (Pseudomonas corrugata [3]): 2.5/2.5 μg/ml
LC, lethal concentration (100% inhibition) (Pseudomonas corrugata [3]): 2.5/2.5 μg/ml
MIC (>90% inhibition) [4]: >10/>10 μg/ml
LC, lethal concentration (100% inhibition) [4]: >10/>10 μg/ml
MIC (>90% inhibition) [5]: 0.5 µg/mL
LC, lethal concentration (100% inhibition) [5]: 1.0 µg/mL
MIC (>90% inhibition) (Xanthomonas vesicatoria [6]): 5.0s/5.0^ μg/ml
LC, lethal concentration (100% inhibition) (Xanthomonas vesicatoria [6]): 5.0s/5.0^ μg/ml

LRIIKKILKKLI-NH2 [SP10-5]
MIC (>90% inhibition) [1]: 0.5/0.5 μg/ml
LC, lethal concentration (100% inhibition) [1]: 0.5/0.5 μg/ml
MIC (>90% inhibition) [2]: 2.5 µg/mL
LC, lethal concentration (100% inhibition) [2]: 10 µg/mL
MIC (>90% inhibition) (Pseudomonas corrugata [3]): 0.5 µg/mL
LC, lethal concentration (100% inhibition) (Pseudomonas corrugata [3]): 2.5 µg/mL
MIC (>90% inhibition) [4]: 0.5/0.5 μg/ml
LC, lethal concentration (100% inhibition) [4]: 0.5/0.5 μg/ml
MIC (>90% inhibition) [5]: 0.25 µg/mL
LC, lethal concentration (100% inhibition) [5]: 0.5 µg/mL
MIC (>90% inhibition) (Xanthomonas vesicatoria [6]): 0.25 µg/mL
LC, lethal concentration (100% inhibition) (Xanthomonas vesicatoria [6]): 0.5 µg/mL

LRFLRRILRRLL-NH2 [SP10-8]
MIC (>90% inhibition) [1]: 0.5/0.5 μg/ml
LC, lethal concentration (100% inhibition) [1]: 0.5/0.5 μg/ml
MIC (>90% inhibition) [2]: 2.5 µg/mL
LC, lethal concentration (100% inhibition) [2]: 5.0 µg/mL
MIC (>90% inhibition) (Pseudomonas corrugata [3]): 0.5 µg/mL
LC, lethal concentration (100% inhibition) (Pseudomonas corrugata [3]): 1.0 µg/mL
MIC (>90% inhibition) [4]: 0.5/0.5 μg/ml
LC, lethal concentration (100% inhibition) [4]: 0.5/0.5 μg/ml
MIC (>90% inhibition) [5]: 1.0/1.0 μg/ml
LC, lethal concentration (100% inhibition) [5]: 1.0/1.0 μg/ml
MIC (>90% inhibition) (Xanthomonas vesicatoria [6]): 0.5/0.5 μg/ml
LC, lethal concentration (100% inhibition) (Xanthomonas vesicatoria [6]): 0.5/0.5 μg/ml
